Results on one molecule are retold here after patent publication US20250282714A1, “COMPOSITIONS FOR AND METHODS OF MODULATING RNA STABILITY” (Duke University, priority 2022, published 2025).

Structures are written as SMILES. Entries after “also recorded” stand apart in the source; their conditions may differ.

Test [1] deals with MALAT1 triple helix. As to the kind of experiment: RiboGreen indicator displacement assay (IDA). The format is binding, human. Particulars: RiboGreen IDA. The protocol:
The protocol was adapted from a previously reported procedure. (Donlic A, et al. (2020) Nucleic Acids Res. 48(14):7653-7664). A serial dilution of the MALAT1 triple helix RNA was performed in HEPES buffer (20 mM HEPES-KOH, 52.6 mM KCl, 0.1 mM MgCl2, pH=7.4) in a 96 well plate in triplicate. […] of each dilution were transferred to a 384 well plate followed by […] of a 500 nM solution of RiboGreen dye in the same buffer (Invitrogen™). The plates were excited at 487 nm (8 nm slit) and emission was recorded at 530 nm (8 nm slit, focal height 11.3 mm) using a CLARIOstar plate reader (BMG labtech). The affinity of the dye for the RNA construct was determined by fitting the raw fluorescence in GraphPad Prism version 8.3.1 for Macintosh (GraphPad Software, La Jolla California USA, (www.graphpad.com)) by fitting to the Log[Agonist] vs. response—variable slope model that using Equation (1) below.
where Y is normalized % change in fluorescence intensity, X is RNA concentration, Bottom is lowest fluorescence % change and Top is highest fluorescence % change. Affinity of the dye for the RNA construct was used as the ideal RNA concentration (174 nM) for small molecule titrations.
A serial dilution of small molecule (0, 0.5 μM, 1.0 μM, 2.5 μM, 5 μM, 7.5 μM, 10.0 μM, 12.5 μM, 25 μM, 50 µM, 75 μM, 100 μM, 125 μM, 150 μM, 250 μM, 500 µM) was performed in HEPES buffer (20 mM HEPES-KOH, 52.6 mM KCl, 0.1 mM MgCl2, pH=7.4) in a 96 well plate in triplicate. Then, 8 μL of each dilution were transferred to a 384 well plate, followed by 8 μL of a 174 nM solution of MALAT1 RNA and […] of RiboGreen™ (Invitrogen™). The RNA was previously annealed by heating to 95° C. for 5 minutes and cooling to 0° C. on ice for 30 minutes. The 384 well plates were shaken for 5 minutes, centrifuged at 4000 rpm for 1 minute, and incubated in the dark for 20 minutes. The plates were excited at 487 nm (8 nm slit) and emission was read at 525 nm (8 nm slit, focal height […]) using a CLARIOstar plate reader (BMG Labtech). Percent fluorescence indicator displacement (% FID) was calculated by subtracting and, subsequently, dividing by the blank wells with RNA-dye complex and no small molecule as shown in Equation (2).
Where Fo is the fluorescence of the blank well with RNA+dye and no small molecule and F is the fluorescence of the well with all three components (RNA+dye+small molecule).
Each technical triplicate was averaged, and the resulting FID values were averaged between three independent experiments. The binding curve and Log (CD50) value was obtained by using a non-linear fit curve (Log[Agonist] vs. response) with variable slope at four parameters (GraphPad Prism Software version for Macintosh 8.3.1, La Jolla, California, USA (www.graphpadprism.com)) as shown in Equation 1. Reported values are averages of three independent experiments=standard deviation.
Given the structural differences between secondary and tertiary structures, where more continuous and complex base-pairing occurs, the design and optimization of an RNA triple helix IDA amenable to HTS was the first focused on. The utility of RiboGreen™ dye was confirmed as an indicator. The RiboGreen™ structure is proprietary, and stoichiometry is thus unconfirmed. Upon assay optimization, the 21-member library was screened using a 16-point titration in three independent replicates (FIG. 2A, FIG. 12A-FIG. 12U).

Test [2] deals with MALAT1 triple helix. As to the kind of experiment: Differential scanning fluorimetry (DSF), thermal stability. The format is binding, human. Particulars: DSF. The method, then: Differential scanning fluorimetry experiments were performed as previously reported. (Donlic A, et al. (2020) Nucleic Acids Res. 48(14):7653-7664). All experiments were performed in white 96 well plates in a LightCycler® 96 (Roche). In a typical experiment, 4 μM of RNA was annealed in the same buffer used for indicator displacement assays (20 mM HEPES-KOH, 52.6 mM KCl, 0.1 mM MgCl2, pH=7.4) by heating at 95° C. for 3 minutes, snap-cooling on ice for 10 minutes, and leaving the solution at room temperature for 1 hr. Then, 42 μL of this solution was aliquoted to wells and 5 μM of ligand was added (2.5 μL of water, 2.0 μL of DMSO, 0.5 μL of 500 μM small molecule stock). The mixture was left to incubate at room temperature for 5 minutes, after which 3 μL of a 20 μM Quant-iT™ RiboGreen™ (ThermoFisher Scientific) dye stock solution in appropriate buffer was added to each well. The 96 well plate was then sealed with an optically clear foil and centrifuged for 1 minute at 4000 rpm prior to being placed in the instrument. The light cycler program was created by selecting the melting curve method; fluorescence intensity was monitored using the SYBR Green I/HRM dye filter combination (465-510 nm) from 37-98° C. at a ramp rate of 0.01° C./second with 150 acquisitions per° C. Melting profiles were obtained by Tm analysis in the LightCycler® 96 software (SW 1.1).
The MALAT1 triple helix is known to confer stability to the full-length transcript and protect it from RNase-mediated degradation, ultimately resulting in transcript accumulation and aggregation in nuclear speckles. (Brown J A, (2020) WIREs RNA. 11(6):e1598; Wilusz J E, et al. (2012) Genes Dev. 26(21):2392-2407; Brown J A, et al. (2014) Nat Struct Mol Biol. 21(7):633-640; Tycowski K T, et al. (2016) Cell Rep. 15(6):1266-1276). To better understand how the diminazene focused library affects the MALAT1 triplex stability, the entire library was evaluated via differential scanning fluorimetry (DSF) (FIG. 5A). This method allows for rapid assessment of small molecule effects on nucleic acid thermal stability (Silvers R, et al. (2015) Chembiochem. 16(7):1109-1114) in a 96-well plate format, substantially reducing the time and cost associated with traditional UV-melting experiments.
The bi-phasic melting profile distinctive of triple helices is attributed to an initial melting of the Hoogsteen triple base pairs followed by dissociation of Watson-Crick-Franklin base pairs (FIG. 16A-FIG. 16E). (Pilch D S, et al. (1995) Biochemistry. 34(49):16107-16124). At an equimolar ratio of RNA:small molecule, a range of thermal stabilization of the first (Tm1) was observed, but not the second (Tm2) melting peak (FIG. 5A, FIG. 13A-FIG. 13Z). At increasing small molecule concentration, a dose-dependent increase in ΔTm1 but not in ΔTm2 was observed, indicating small molecule interactions in the triplex region and not in the upper stem region (FIG. 15).

Take `N=C(NCc1ccccc1)c1cccc(/N=N/Nc2cccc(C(=N)NCc3ccccc3)c2)c1` [DMZ-M4]: the “affinity for the MALAT1 triple helix (in words)” value in test [1] is recorded as “mediocre affinity”. The “effect on MALAT1 triplex thermal stability (in words)” value in test [2] is “increases in thermal stability; also recorded: mediocre”.
